Experimental data reported in patent US20240148821A1, “PHARMACEUTICAL USE OF CYCLIC PEPTIDE COMPOUND” (CHUGAI SEIYAKU KABUSHIKI KAISHA, priority 2021, published 2024).
Numbered stars: 1 amine (or outer) side, 2 acyl side, 3 side chain; on linkers, the order of the positions; unused ones are H or OH. Bridge positions count the residues as written; N and C are the ends. Square brackets hold non-standard residues; d marks the D form. Peptide text beside a SMILES is read from it. * marks the point of attachment. hPhe(3,5-F2-4-CF3) = N[C@@H](CCc1cc(F)c(C(F)(F)F)c(F)c1)C(=O)O; hPhe(3-Cl-4-CF3) = N[C@@H](CCc1ccc(C(F)(F)F)c(Cl)c1)C(=O)O; NMePhe(4-CF3) = CN[C@@H](Cc1ccc(C(F)(F)F)cc1)C(=O)O; NMeAbu(4,4,4-F3) = CN[C@@H](CC(F)(F)F)C(=O)O; NMePhe(4-Cl) = CN[C@@H](Cc1ccc(Cl)cc1)C(=O)O; X131 = O=C([C@H](Cc1cccc(Br)c1F)N[*:1])[*:2]; NMePhe(4-Me) = CN[C@@H](Cc1ccc(C)cc1)C(=O)O; NMeGly(cPent) = CN[C@H](C(=O)O)C1CCCC1; Phe(3-I) = N[C@@H](Cc1cccc(I)c1)C(=O)O; Phe(4-F) = N[C@@H](Cc1ccc(F)cc1)C(=O)O; Pro(4,4-F2) = O=C(O)[C@@H]1CC(F)(F)CN1; NMeY = CN[C@@H](Cc1ccc(O)cc1)C(=O)O; NMeCha = CN[C@@H](CC1CCCCC1)C(=O)O; NMeChg = CN[C@H](C(=O)O)C1CCCCC1; NMeF = CN[C@@H](Cc1ccccc1)C(=O)O; NMeD = CN[C@@H](CC(=O)O)C(=O)O; NMeL = CN[C@@H](CC(C)C)C(=O)O; NMeNva = CCC[C@H](NC)C(=O)O; NMeV = CN[C@H](C(=O)O)C(C)C; d(β3hA) = C[C@@H](N)CC(=O)O; NMeAbu = CC[C@H](NC)C(=O)O; NMeA = CN[C@@H](C)C(=O)O; NMeAib = CNC(C)(C)C(=O)O; Nle = CCCC[C@H](N)C(=O)O; Piperidide = C1CCN(*)CC1; Pra = C#CC[C@H](N)C(=O)O; Pyrrolidide = C1CCN(*)C1; Ac5c = NC1(C(=O)O)CCCC1; Aze = O=C(O)[C@@H]1CCN1; CF3 = FC(F)(F)*; Sar = CNCC(=O)O

What follows are molecules tested on Human pancreatic cancer cell line AsPC-1 (G12D mutation Kras) (assay: AsPC-1 cell growth inhibition (AsPC-1 CGI)). Conditions: read-out: AsPC-1 cell growth inhibition, 50% growth inhibitory concentration (IC50 value); 96 hours, CellTiter-Glo, values classified in ranges.
Assay type: cell-based
Method: Test compounds were serially dilated with dimethyl sulfoxide, and 200 nL was then dispensed to a U-bottom 96-well plate using Labcyte Echo. […] The cell suspension was dispensed to a. plate containing a test compound at 100 μL per well and incubated at 37° C. in a 5% carbon dioxide gas incubator. 96 hours later, 80 μL of CellTiter-Glo (Promega) was added to each well and fluorescence was measured.

`C#CC[C@@H]1NC(=O)[C@H](Cc2cccc(I)c2)NC(=O)CN(C)C(=O)[C@H](Cc2ccc(OC(F)(F)F)cc2)N(C)C(=O)[C@@H]2CCN2C(=O)CN(C)C(=O)[C@H]([C@@H](C)CC)NC(=O)[C@H](CC(C)C)N(C)C(=O)C[C@@H](C(=O)N2CCCCC2)N(C)C(=O)[C@H](CC(C)C)NC(=O)C(C)(C)N(C)C1=O` [Compound 1298] ([NMeL]I[Sar][Aze][NMeY](CF3)[Sar][Phe(3-I)][Pra][NMeAib]L[NMeD]-Piperidide; lactam N-11) and `C#CC[C@@H]1NC(=O)[C@H](Cc2cccc(I)c2)NC(=O)CN(C)C(=O)[C@H](Cc2ccccc2)N(C)C(=O)[C@@H]2CCN2C(=O)[C@H](C)N(C)C(=O)[C@H]([C@@H](C)CC)NC(=O)[C@H](CC(C)C)N(C)C(=O)C[C@@H](C(=O)N2CCCCC2)N(C)C(=O)[C@H](CC(C)C)NC(=O)C(C)(C)N(C)C1=O` [Compound 1313] ([NMeL]I[NMeA][Aze][NMeF][Sar][Phe(3-I)][Pra][NMeAib]L[NMeD]-Piperidide; lactam N-11) cannot be ordered by IC50: > 500 nM for the first, > 500 nM for the second.

`CC[C@H](C)[C@@H]1NC(=O)[C@H](CC(F)(F)F)N(C)C(=O)C[C@@H](C(=O)N2CCCC2)N(C)C(=O)[C@H](C2CCCCC2)N(C)C(=O)C2(CCCC2)NC(=O)[C@@H]2CC(F)(F)CN2C(=O)[C@H](CCc2cc(F)c(C(F)(F)F)c(F)c2)NC(=O)CN(C)C(=O)[C@H](Cc2ccc(C(F)(F)F)cc2)N(C)C(=O)CN(C)C(=O)CN(C)C1=O` [Compound 1303] ([NMeAbu(4,4,4-F3)]I[Sar][Sar][NMePhe(4-CF3)][Sar][hPhe(3,5-F2-4-CF3)][Pro(4,4-F2)][Ac5c][NMeChg][NMeD]-Pyrrolidide; lactam N-11) and `CCC[C@H]1C(=O)N[C@@H]([C@@H](C)CC)C(=O)N(C)CC(=O)N(C)CC(=O)N(C)[C@@H](Cc2ccc(C)cc2)C(=O)N(C)CC(=O)N[C@@H](CCc2cc(F)c(C(F)(F)F)c(F)c2)C(=O)N2CC(F)(F)C[C@H]2C(=O)NC2(CCCC2)C(=O)N(C)[C@@H](C2CCCCC2)C(=O)N(C)[C@H](C(=O)N2CCCC2)CC(=O)N1C` [Compound 1306] ([NMeNva]I[Sar][Sar][NMePhe(4-Me)][Sar][hPhe(3,5-F2-4-CF3)][Pro(4,4-F2)][Ac5c][NMeChg][NMeD]-Pyrrolidide; lactam N-11) cannot be ordered by IC50: ≤ 20 nM for the first, ≤ 20 nM for the second.

`CCCC[C@@H]1NC(=O)[C@H](Cc2cccc(Br)c2F)NC(=O)CN(C)C(=O)[C@H](Cc2ccc(OC)cc2)N(C)C(=O)[C@@H]2CCN2C(=O)[C@H](C)N(C)C(=O)[C@H]([C@@H](C)CC)NC(=O)[C@H](CC)N(C)C(=O)C[C@@H](C(=O)N2CCCCC2)N(C)C(=O)[C@H](CC(C)C)NC(=O)C(C)(C)N(C)C1=O` [Compound 1304] ([NMeAbu]I[NMeA][Aze][NMeY](Me)[Sar][X131][Nle][NMeAib]L[NMeD]-Piperidide; lactam N-11) and `CCCC[C@@H]1NC(=O)[C@H](Cc2ccc(F)cc2)NC(=O)CN(C)C(=O)[C@H](Cc2ccc(Cl)cc2)N(C)C(=O)CN(C)C(=O)CN(C)C(=O)[C@H]([C@@H](C)CC)NC(=O)[C@H](CC(C)C)N(C)C(=O)C[C@@H](C(=O)N2CCCCC2)N(C)C(=O)[C@H](CC(C)C)NC(=O)C(C)(C)N(C)C1=O` [Compound 1305] ([NMeL]I[Sar][Sar][NMePhe(4-Cl)][Sar][Phe(4-F)][Nle][NMeAib]L[NMeD]-Piperidide; lactam N-11) cannot be ordered by IC50: > 500 nM for the first, > 500 nM for the second.

`CC[C@H](C)[C@@H]1NC(=O)[C@H](CC(C)C)N(C)C(=O)C[C@@H](C)NC(=O)[C@H](C2CCCC2)N(C)C(=O)C2(CCCC2)NC(=O)[C@H](C)NC(=O)[C@H](CCc2ccc(C(F)(F)F)c(Cl)c2)NC(=O)CN(C)C(=O)[C@H](Cc2ccc(C)cc2)N(C)C(=O)[C@@H]2CCN2C(=O)[C@H](C)N(C)C1=O` [Compound 1307] (cyclo(A[Ac5c][NMeGly(cPent)][d(β3hA)][NMeL]I[NMeA][Aze][NMePhe(4-Me)][Sar][hPhe(3-Cl-4-CF3)])) and `CC[C@H](C)[C@@H]1NC(=O)[C@H](CC(C)C)N(C)C(=O)C[C@@H](C(=O)N2CCCCC2)N(C)C(=O)[C@H](C(C)C)N(C)C(=O)C2(CCCC2)NC(=O)[C@@H](C)NC(=O)[C@H](CCc2ccc(C(F)(F)F)c(Cl)c2)NC(=O)CN(C)C(=O)[C@H](CC2CCCCC2)N(C)C(=O)[C@@H]2CCN2C(=O)[C@H](C)N(C)C1=O` [Compound 1314] ([NMeL]I[NMeA][Aze][NMeCha][Sar][hPhe(3-Cl-4-CF3)][dA][Ac5c][NMeV][NMeD]-Piperidide; lactam N-11) cannot be ordered by IC50: > 500 nM for the first, > 500 nM for the second.

With `CC[C@H](C)[C@@H]1NC(=O)[C@H](CC(C)C)N(C)C(=O)C[C@@H](C(=O)N2CCCCC2)N(C)C(=O)[C@H](C(C)C)N(C)C(=O)C2(CCCC2)NC(=O)[C@H](C)NC(=O)[C@H](CCc2ccc(C(F)(F)F)c(Cl)c2)NC(=O)CN(C)C(=O)[C@H](CC2CCCCC2)N(C)C(=O)[C@@H]2CCN2C(=O)[C@H](C)N(C)C1=O` [Compound 1316] ([NMeL]I[NMeA][Aze][NMeCha][Sar][hPhe(3-Cl-4-CF3)]A[Ac5c][NMeV][NMeD]-Piperidide; lactam N-11) the IC50 was > 500 nM.
